One substance from patent US6703502B2 (priority 1997, dated 2004) can be followed below.

The target in this assay is α7 nAChR subtype (Rattus norvegicus, UniProt Q05941). It is filed as binding. As to conditions: read-out: KD of radioligand.
α7 nAChR subtype, sequence (Q05941 23-502 limits assumed): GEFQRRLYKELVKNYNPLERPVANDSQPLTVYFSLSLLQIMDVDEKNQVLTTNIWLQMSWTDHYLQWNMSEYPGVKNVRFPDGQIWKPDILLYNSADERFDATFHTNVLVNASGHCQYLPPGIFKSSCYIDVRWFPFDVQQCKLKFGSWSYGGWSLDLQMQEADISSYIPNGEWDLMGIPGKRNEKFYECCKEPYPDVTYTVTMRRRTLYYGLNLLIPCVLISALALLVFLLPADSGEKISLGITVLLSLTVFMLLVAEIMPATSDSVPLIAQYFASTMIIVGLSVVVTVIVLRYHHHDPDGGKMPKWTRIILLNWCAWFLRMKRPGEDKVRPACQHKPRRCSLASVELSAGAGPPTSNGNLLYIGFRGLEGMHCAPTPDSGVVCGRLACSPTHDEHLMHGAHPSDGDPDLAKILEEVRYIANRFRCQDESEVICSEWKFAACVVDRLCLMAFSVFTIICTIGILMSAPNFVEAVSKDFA

For [^125I]-α-Bungarotoxin [^125I-α-BTX], the Kd was 1.67 nM.

The term Kd denotes the constant that tells how readily two partners part at equilibrium.
